Data from article PMC9492542, “Brain-restricted mTOR inhibition with binary pharmacology” (Nature, 2022).
Values joined by “and” are separate entries in the source; they are usually repeats but may differ in a detail not shown here. Identical values can stand only once. Like-named read-outs stand apart in the source and are kept apart here.

Assays:
[1] = target: T1, FKBP12 (Homo sapiens, UniProt P62942); assay: Competition fluorescence polarization assay with FITC-rapamycin tracer; assay type: binding
T1 construct: His-tag (HRV 3C cleavable) (cleaved yes); made in house; host or cells: Escherichia coli BL21(DE3)
Experimental: Compound binding affinity was determined using a competition fluorescence polarization assay. […] The assay buffer was 20 mM HEPES pH 7.5 and 0.01% Triton X-100. […] Data were fitted to a three-parameter sigmoidal curve to derive IC50 values. Ki of the compounds were calculated using a tool provided by S. Wang’s laboratory (http://www.umich.edu/~shaomengwanglab/software/calc_ki/index.html). Data were plotted in GraphPad Prism 9.0.

[2] = test system: NFAT; assay: NFAT activation assay (Jurkat-Lucia NFAT luciferase reporter, PMA/ionomycin); assay type: cell-based
Experimental: Jurkat-Lucia NFAT cells were resuspended to 2 × 10^6 cells per ml in fresh growth medium and dispensed in 96-well tissue culture plates (Corning 3904; 180 µl per well). DMSO solutions of test compounds at 100× the test concentrations were added and the cells were incubated for 4 h at 37 °C. A 10× stimulation solution containing phorbol myristate acetate (100 ng ml^–1) and ionomycin (10 µg ml^–1) were added to each well (20 µl per well) except for the negative control wells, which were supplemented with 20 µl medium. Cells were incubated at 37 °C for 12 h. Cells (20 µl per well) were transferred into a white opaque 96-well plate (Corning 3912). TECAN Spark 20M plate reader equipped with an auto-injection system was primed with Lucia luciferase substrate solution and set with the following parameters: 50 µl of injection volume, end-point measurement with a 4-s delay time and 0.1-s integration time. Luciferase activity was measured with the settings above and normalized to DMSO-treated, stimulated cells. Data were plotted in GraphPad Prism 9.0.

[3] = target: LRRK2 (Mus musculus, UniProt Q5S006); assay: Phospho-LRRK2 (S935) quantification by TR-FRET in RAW264.7 cells; conditions: for P-LRRK2(S935) in RAW264.7 cells: replicate raw data
Experimental: Phospho-LRRK2 (S935) was quantified in drug-treated cells using a Phospho-LRRK2 (Ser935) cellular kit (Cisbio) following the manufacturer’s instructions. […] Cells were treated with compounds at the indicated concentrations for 2 h. Medium was removed by aspiration and the cells were rinsed with ice-cold PBS (1 ml). Cells were lysed with 100 µl Cisbio 1X lysis buffer at 23 °C directly in plate for 30 min. […] Clarified lysate (16 µl) was dispensed into one well of a low-volume, round-bottom 384-well plate, and 4 µl LRRK2–phospho-LRRK2 (S935) antibody master mix (Cisbio) was added to each well. The plate was incubated at 23 °C for 4 h.
The TR-FRET signal was calculated as the ratio fluorescence intensity [read B]/[read A].

[4] = target: T2, LRRK2 (Homo sapiens, UniProt Q5S007); assay: In vitro LRRK2 kinase inhibition assay (SelectScreen Adapta), with or without 10 µM FKBP12; assay type: biochemical
T2 construct: purchased SelectScreen Services (Thermo Fisher Scientific)
T2 sequence (Q5S007 whole entry): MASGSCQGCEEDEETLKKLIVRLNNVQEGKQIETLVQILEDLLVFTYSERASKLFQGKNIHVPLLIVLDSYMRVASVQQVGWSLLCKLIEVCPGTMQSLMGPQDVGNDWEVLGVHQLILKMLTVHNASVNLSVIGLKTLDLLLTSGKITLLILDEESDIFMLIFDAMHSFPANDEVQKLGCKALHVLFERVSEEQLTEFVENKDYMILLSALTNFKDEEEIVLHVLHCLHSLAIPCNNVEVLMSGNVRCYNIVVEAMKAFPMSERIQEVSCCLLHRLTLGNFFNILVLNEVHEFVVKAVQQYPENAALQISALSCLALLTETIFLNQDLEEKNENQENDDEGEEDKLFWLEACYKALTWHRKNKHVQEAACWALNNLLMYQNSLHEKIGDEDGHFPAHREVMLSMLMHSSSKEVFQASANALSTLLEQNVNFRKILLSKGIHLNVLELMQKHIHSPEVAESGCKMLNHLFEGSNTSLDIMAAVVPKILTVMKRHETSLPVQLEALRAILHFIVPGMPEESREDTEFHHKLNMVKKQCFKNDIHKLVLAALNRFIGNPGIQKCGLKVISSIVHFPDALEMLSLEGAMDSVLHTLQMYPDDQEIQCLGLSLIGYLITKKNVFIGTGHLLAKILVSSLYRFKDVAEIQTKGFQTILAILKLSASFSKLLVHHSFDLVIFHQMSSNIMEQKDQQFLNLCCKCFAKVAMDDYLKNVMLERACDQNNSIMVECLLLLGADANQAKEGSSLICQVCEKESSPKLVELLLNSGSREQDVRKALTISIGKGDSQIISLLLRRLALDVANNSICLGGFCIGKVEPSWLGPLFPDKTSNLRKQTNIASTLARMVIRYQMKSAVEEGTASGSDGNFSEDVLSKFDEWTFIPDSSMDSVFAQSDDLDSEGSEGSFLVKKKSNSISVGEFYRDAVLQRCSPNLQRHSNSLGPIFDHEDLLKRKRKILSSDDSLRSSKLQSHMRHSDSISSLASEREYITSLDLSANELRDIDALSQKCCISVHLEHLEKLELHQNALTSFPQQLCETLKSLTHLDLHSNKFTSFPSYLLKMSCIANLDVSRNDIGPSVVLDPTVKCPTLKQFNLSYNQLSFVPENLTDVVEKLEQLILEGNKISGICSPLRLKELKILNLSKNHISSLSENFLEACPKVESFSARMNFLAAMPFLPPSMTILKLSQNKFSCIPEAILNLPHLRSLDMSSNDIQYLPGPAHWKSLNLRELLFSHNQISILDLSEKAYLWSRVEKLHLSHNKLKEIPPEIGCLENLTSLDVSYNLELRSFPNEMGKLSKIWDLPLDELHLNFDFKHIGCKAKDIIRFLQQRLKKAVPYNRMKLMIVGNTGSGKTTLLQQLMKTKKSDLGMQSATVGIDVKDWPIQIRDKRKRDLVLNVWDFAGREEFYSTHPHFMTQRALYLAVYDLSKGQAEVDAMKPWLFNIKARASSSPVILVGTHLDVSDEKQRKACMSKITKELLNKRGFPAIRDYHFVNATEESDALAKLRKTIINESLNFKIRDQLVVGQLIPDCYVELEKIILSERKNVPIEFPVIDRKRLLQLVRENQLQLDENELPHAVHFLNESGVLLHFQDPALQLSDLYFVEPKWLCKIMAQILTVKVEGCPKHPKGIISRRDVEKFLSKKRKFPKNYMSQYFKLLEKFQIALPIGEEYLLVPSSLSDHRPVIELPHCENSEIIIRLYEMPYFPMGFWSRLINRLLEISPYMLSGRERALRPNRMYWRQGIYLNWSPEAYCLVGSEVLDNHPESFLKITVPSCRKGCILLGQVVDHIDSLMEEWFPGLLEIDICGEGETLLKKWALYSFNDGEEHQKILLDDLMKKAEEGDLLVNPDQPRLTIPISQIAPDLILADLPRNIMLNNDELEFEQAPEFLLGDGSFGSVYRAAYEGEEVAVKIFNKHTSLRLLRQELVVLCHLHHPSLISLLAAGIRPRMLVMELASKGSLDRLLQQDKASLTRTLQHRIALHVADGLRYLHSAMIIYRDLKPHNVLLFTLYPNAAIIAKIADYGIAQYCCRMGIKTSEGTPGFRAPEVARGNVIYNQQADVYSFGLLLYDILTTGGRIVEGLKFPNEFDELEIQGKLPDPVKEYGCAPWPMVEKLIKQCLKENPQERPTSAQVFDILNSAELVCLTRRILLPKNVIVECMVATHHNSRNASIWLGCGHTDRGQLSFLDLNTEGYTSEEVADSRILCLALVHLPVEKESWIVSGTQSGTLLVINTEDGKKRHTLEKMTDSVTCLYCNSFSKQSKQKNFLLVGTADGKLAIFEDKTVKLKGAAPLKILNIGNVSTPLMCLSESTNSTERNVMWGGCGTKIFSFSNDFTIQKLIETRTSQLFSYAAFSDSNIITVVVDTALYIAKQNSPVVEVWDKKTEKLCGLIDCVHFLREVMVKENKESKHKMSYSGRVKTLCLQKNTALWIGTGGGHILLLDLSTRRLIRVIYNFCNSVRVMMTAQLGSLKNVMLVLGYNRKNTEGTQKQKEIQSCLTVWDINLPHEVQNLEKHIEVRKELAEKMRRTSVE
Experimental: In vitro kinase inhibition assays were performed by SelectScreen Services (Thermo Fisher Scientific) using either Z’-LYTE (mTOR, Src, Csk, EGFR, HER2 and HGK), Adapta (LRRK2) or LanthaScreen (DDR2) assay format (standardized protocols can be accessed on the SelectScreen website: https://www.thermofisher.com/us/en/home/products-and-services/services/custom-services/screening-and-profiling-services/selectscreen-profiling-service/selectscreen-kinase-profiling-service.html. When indicated, recombinant FKBP12 protein was added to the assay mixture to a final concentration of 10 µM.

Sequence of LRRK2 (Mus musculus, UniProt Q5S006) (Q5S006 whole entry): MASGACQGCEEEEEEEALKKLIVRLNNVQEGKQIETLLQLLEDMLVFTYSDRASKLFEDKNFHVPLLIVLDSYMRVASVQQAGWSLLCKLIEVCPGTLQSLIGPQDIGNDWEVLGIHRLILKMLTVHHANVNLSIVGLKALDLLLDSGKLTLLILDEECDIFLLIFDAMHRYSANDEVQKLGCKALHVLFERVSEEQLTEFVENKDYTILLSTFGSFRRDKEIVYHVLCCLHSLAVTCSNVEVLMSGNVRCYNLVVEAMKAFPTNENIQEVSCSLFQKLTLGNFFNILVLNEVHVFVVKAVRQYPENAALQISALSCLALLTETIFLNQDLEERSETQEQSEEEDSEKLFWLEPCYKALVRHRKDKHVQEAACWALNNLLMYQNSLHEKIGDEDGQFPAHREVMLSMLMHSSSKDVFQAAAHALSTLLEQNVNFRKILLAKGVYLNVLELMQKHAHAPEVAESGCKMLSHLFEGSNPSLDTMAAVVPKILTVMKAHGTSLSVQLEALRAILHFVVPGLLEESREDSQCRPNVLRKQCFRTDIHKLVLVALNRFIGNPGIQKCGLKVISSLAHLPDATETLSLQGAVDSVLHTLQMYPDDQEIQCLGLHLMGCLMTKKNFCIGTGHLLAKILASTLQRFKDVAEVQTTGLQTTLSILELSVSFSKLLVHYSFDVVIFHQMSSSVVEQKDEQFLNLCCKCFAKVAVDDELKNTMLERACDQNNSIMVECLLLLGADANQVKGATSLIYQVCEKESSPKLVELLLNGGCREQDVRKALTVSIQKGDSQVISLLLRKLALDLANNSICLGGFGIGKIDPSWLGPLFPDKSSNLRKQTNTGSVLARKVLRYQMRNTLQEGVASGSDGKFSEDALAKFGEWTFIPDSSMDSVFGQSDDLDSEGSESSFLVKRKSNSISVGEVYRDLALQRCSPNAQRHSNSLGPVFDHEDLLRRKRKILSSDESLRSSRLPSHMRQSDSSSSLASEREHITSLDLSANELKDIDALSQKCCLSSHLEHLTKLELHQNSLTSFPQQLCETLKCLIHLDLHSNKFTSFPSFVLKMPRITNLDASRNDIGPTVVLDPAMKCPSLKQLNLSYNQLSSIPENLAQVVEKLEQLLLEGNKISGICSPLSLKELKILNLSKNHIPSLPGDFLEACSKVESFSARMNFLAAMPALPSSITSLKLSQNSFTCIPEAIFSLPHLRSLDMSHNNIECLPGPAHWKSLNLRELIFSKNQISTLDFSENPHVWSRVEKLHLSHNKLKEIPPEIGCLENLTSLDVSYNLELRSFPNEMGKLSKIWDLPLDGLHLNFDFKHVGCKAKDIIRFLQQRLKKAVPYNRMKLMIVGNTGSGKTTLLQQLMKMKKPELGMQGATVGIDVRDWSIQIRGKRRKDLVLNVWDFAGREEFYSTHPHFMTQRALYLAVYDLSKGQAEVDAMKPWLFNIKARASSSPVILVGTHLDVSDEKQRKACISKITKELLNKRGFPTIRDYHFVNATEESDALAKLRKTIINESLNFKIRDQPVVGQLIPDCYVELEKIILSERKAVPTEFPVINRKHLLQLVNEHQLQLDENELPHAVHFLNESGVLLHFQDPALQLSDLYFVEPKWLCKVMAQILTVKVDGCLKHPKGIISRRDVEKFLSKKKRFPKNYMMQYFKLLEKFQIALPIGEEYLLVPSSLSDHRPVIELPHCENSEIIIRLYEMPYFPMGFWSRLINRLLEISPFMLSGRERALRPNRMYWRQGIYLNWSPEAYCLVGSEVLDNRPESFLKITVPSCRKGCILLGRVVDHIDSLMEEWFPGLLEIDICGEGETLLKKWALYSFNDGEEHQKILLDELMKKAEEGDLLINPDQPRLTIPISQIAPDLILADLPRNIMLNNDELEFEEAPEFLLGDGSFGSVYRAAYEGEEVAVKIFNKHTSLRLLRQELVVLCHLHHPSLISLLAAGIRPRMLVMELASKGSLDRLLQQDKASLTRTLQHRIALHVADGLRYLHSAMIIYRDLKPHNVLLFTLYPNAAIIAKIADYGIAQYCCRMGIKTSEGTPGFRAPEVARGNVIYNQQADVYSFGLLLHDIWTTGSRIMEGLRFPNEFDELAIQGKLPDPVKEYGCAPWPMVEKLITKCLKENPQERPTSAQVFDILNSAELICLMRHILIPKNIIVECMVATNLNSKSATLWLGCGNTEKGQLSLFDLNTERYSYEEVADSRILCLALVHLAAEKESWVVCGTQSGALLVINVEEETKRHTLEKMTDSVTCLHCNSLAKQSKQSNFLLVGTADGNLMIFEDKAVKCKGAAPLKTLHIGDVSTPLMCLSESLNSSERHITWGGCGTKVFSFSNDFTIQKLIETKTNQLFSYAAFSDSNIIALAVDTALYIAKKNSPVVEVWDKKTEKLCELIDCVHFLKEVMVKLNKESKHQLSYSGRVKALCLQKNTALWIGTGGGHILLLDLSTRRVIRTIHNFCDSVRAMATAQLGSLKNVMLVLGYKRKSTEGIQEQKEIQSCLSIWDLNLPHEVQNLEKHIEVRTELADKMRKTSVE
T1 sequence (P62942 whole entry): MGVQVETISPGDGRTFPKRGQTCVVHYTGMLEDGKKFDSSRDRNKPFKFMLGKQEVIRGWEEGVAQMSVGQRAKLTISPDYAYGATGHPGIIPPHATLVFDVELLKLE

## C=CC[C@@H]1/C=C(\C)C[C@H](C)C[C@H](OC)[C@H]2O[C@@](O)(C(=O)C(=O)N3CCCC[C@H]3C(=O)O[C@H](/C(C)=C/[C@@H]3CC[C@@H](O)[C@H](OC)C3)[C@H](C)[C@@H](O)CC1=O)[C@H](C)C[C@@H]2OC [FK506]
[1]; 0.0976562 nM compound
  fluorescence polarization (competition, raw): 108
[1]; 0.195312 nM compound
  fluorescence polarization (competition, raw): 110 and 109
[1]; 0.390625 nM compound
  fluorescence polarization (competition, raw): 108
[1]; 0.78125 nM compound
  fluorescence polarization (competition, raw): 107 and 103
[1]; 1.5625 nM compound
  fluorescence polarization (competition, raw): 104 and 103
[1]; 3.125 nM compound
  fluorescence polarization (competition, raw): 92 and 96
[1]; 6.25 nM compound
  fluorescence polarization (competition, raw): 75 and 72
[1]; 12.5 nM compound
  fluorescence polarization (competition, raw): 66 and 60
[1]; 25 nM compound
  fluorescence polarization (competition, raw): 57 and 55
[1]; 50 nM compound
  fluorescence polarization (competition, raw): 53 and 55
[1]; 100 nM compound
  fluorescence polarization (competition, raw): 46 and 51
[2]; 0.00512 nM
  NFAT luciferase activity, normalized to DMSO-treated stimulated cells: 103.4 and 90.3 and 99.2
[2]; 0.0256 nM
  NFAT luciferase activity, normalized to DMSO-treated stimulated cells: 93.6 and 87.2 and 91.4
[2]; 0.128 nM
  NFAT luciferase activity, normalized to DMSO-treated stimulated cells: 35.5 and 35.2 and 38.5
[2]; 0.64 nM
  NFAT luciferase activity, normalized to DMSO-treated stimulated cells: 0.2
[2]; 16 nM
  NFAT luciferase activity, normalized to DMSO-treated stimulated cells: 0.1
[2]; 80 nM
  NFAT luciferase activity, normalized to DMSO-treated stimulated cells: 0.1 and 0.2
[2]; 400 nM
  NFAT luciferase activity, normalized to DMSO-treated stimulated cells: 0.1 and 0.2
[2]; 2000 nM
  NFAT luciferase activity, normalized to DMSO-treated stimulated cells: 0.2
[2]; 10000 nM
  NFAT luciferase activity, normalized to DMSO-treated stimulated cells: 0.2
[2]; Homo sapiens, Jurkat NFAT luciferase, PMA + ionomycin
  IC50: 0.094 ± 0.008 nM

## CCNc1nc(Nc2cc(F)c(C(=O)N3CCN(C(=O)CCC[C@@H]4/C=C(\C)C[C@H](C)C[C@H](OC)[C@H]5O[C@@](O)(C(=O)C(=O)N6CCCC[C@H]6C(=O)O[C@H](/C(C)=C/[C@@H]6CC[C@@H](O)[C@H](OC)C6)[C@H](C)[C@@H](O)CC4=O)[C@H](C)C[C@@H]5OC)CC3)cc2OC)ncc1C(F)(F)F [FK-GNE7915]
[3]
  IC50: 6.7 nM
[3]; 100 nM FK-GNE7915
  level of phospho-LRRK2 (S935), % of the basal level: 15%
[3]; 100 nM FK-GNE7915 + 1 µM RapaBlock
  effect on LRRK2 activity: had no effect on LRRK2 activity
[3]; 100 nM compound, +1 µM RapaBlock
  P-LRRK2(S935) in RAW264.7 cells: 99.2 and 97.5 and 90.7
[3]; 100 nM compound, No RapaBlock
  P-LRRK2(S935) in RAW264.7 cells: 16.7 and 15.6 and 13.4
[3]; Conc 0.457247 nM, 0 nM = 100
  P-LRRK2(S935) in RAW264.7 cells: 84.5 and 90.2 and 94.3
[3]; Conc 1.37174 nM, 0 nM = 100
  P-LRRK2(S935) in RAW264.7 cells: 79.4 and 82.9 and 87.4
[3]; Conc 4.11523 nM, 0 nM = 100
  P-LRRK2(S935) in RAW264.7 cells: 67.8 and 77.9 and 73.6
[3]; Conc 12.3457 nM, 0 nM = 100
  P-LRRK2(S935) in RAW264.7 cells: 32.2 and 34.9 (2×)
[3]; Conc 37.037 nM, 0 nM = 100
  P-LRRK2(S935) in RAW264.7 cells: 13.7 and 14.5 and 16.2
[3]; Conc 111.111 nM, 0 nM = 100
  P-LRRK2(S935) in RAW264.7 cells: 11.4 (2×) and 13.1
[3]; Conc 333.333 nM, 0 nM = 100
  P-LRRK2(S935) in RAW264.7 cells: 13.1 and 12.6 and 11.8
[3]; Conc 1000 nM, 0 nM = 100
  P-LRRK2(S935) in RAW264.7 cells: 14 and 15.7 and 13.3
[4]; 0.495 nM drug, + 10 µM FKBP12
  residual kinase activity (LRRK2): 87
[4]; 0.495 nM drug, no FKBP12
  residual kinase activity (LRRK2): 95
[4]; 1.52 nM drug, + 10 µM FKBP12
  residual kinase activity (LRRK2): 87
[4]; 1.52 nM drug, no FKBP12
  residual kinase activity (LRRK2): 95
[4]; 4.57 nM drug, + 10 µM FKBP12
  residual kinase activity (LRRK2): 65
[4]; 4.57 nM drug, no FKBP12
  residual kinase activity (LRRK2): 107
[4]; 13.7 nM drug, no FKBP12
  residual kinase activity (LRRK2): 90
[4]; 41.2 nM drug, + 10 µM FKBP12
  residual kinase activity (LRRK2): 41
[4]; 41.2 nM drug, no FKBP12
  residual kinase activity (LRRK2): 70
[4]; 123 nM drug, + 10 µM FKBP12
  residual kinase activity (LRRK2): 31
[4]; 123 nM drug, no FKBP12
  residual kinase activity (LRRK2): 47
[4]; 370 nM drug, no FKBP12
  residual kinase activity (LRRK2): 25
[4]; 1110 nM drug, + 10 µM FKBP12
  residual kinase activity (LRRK2): 7
[4]; 1110 nM drug, no FKBP12
  residual kinase activity (LRRK2): 9
[4]; 3330 nM drug, no FKBP12
  residual kinase activity (LRRK2): 4
[4]; 10000 nM drug, + 10 µM FKBP12
  residual kinase activity (LRRK2): 5
[4]; 10000 nM drug, no FKBP12
  residual kinase activity (LRRK2): 3
[4]; read-out: residual kinase activity (LRRK2), 0.495 nM drug, + 10 µM FKBP12
  remaining activity at 0.000495 µM: 91%
[4]; read-out: residual kinase activity (LRRK2), 0.495 nM drug, no FKBP12
  remaining activity at 0.000495 µM: 101%
[4]; read-out: residual kinase activity (LRRK2), 1.52 nM drug, + 10 µM FKBP12
  remaining activity at 0.00152 µM: 91%
[4]; read-out: residual kinase activity (LRRK2), 1.52 nM drug, no FKBP12
  remaining activity at 0.00152 µM: 106%
[4]; read-out: residual kinase activity (LRRK2), 4.57 nM drug, + 10 µM FKBP12
  remaining activity at 0.00457 µM: 78%
[4]; read-out: residual kinase activity (LRRK2), 4.57 nM drug, no FKBP12
  remaining activity at 0.00457 µM: 94%
[4]; read-out: residual kinase activity (LRRK2), 13.7 nM drug, + 10 µM FKBP12
  remaining activity at 0.0137 µM: 57%
[4]; read-out: residual kinase activity (LRRK2), 13.7 nM drug, no FKBP12
  remaining activity at 0.0137 µM: 89%
[4]; read-out: residual kinase activity (LRRK2), 41.2 nM drug, + 10 µM FKBP12
  remaining activity at 0.0412 µM: 38%
[4]; read-out: residual kinase activity (LRRK2), 41.2 nM drug, no FKBP12
  remaining activity at 0.0412 µM: 66%
[4]; read-out: residual kinase activity (LRRK2), 123 nM drug, + 10 µM FKBP12
  remaining activity at 0.123 µM: 24%
[4]; read-out: residual kinase activity (LRRK2), 123 nM drug, no FKBP12
  remaining activity at 0.123 µM: 54%
[4]; read-out: residual kinase activity (LRRK2), 370 nM drug, + 10 µM FKBP12
  remaining activity at […]: 14%
[4]; read-out: residual kinase activity (LRRK2), 370 nM drug, no FKBP12
  remaining activity at […]: 29%
[4]; read-out: residual kinase activity (LRRK2), 1110 nM drug, + 10 µM FKBP12
  remaining activity at 1.11 µM: 8%
[4]; read-out: residual kinase activity (LRRK2), 1110 nM drug, no FKBP12
  remaining activity at 1.11 µM: 10%
[4]; read-out: residual kinase activity (LRRK2), 3330 nM drug, + 10 µM FKBP12
  remaining activity at 3.33 µM: 5%
[4]; read-out: residual kinase activity (LRRK2), 3330 nM drug, no FKBP12
  remaining activity at 3.33 µM: 5%
[4]; read-out: residual kinase activity (LRRK2), 10000 nM drug, + 10 µM FKBP12
  remaining activity at 10 µM: 6%
[4]; read-out: residual kinase activity (LRRK2), 10000 nM drug, no FKBP12
  remaining activity at 10 µM: 5%
[4]; with 10 µM FKBP12
  IC50: 21 nM
[4]; without added FKBP12
  IC50: 107 nM
